Series [1] concerns islets. In words: GSIS with CMPF conjugated to fatty acid-free BSA. The settings on record: conjugated for 6 hours prior to addition of islets, N=3. The class given is cell-based. The procedure:
CMPF was conjugated to fatty acid free BSA for 6 hours prior to addition of islets for green and blue bars. The same protocol used for the conjugation of oleate was used. Black and white bars indicate addition of CMPF with 0.1% BSA in the media without pre-conjugation. N=3. *P<0.05.

Series [2] concerns primary murine islets. In words: Glucose- and KCl-stimulated insulin secretion in primary murine islets. The class given is cell-based. The settings on record: 200 uM. The method, then: LG=2.8 mM glucose, HG=16.7 mM glucose, KCl=16.7 mM glucose+30 mM KCl. *p<0.05.
Since beta cell failure is a major underlying cause of both GDM and T2D, the effect of increased CMPF on beta cell function was investigated both in vitro and in vivo. Using physiological concentrations of CMPF (20 uM and 200 uM, as observed in our NGT-pregnant and GDM-pregnant samples respectively (FIG. 2)), as well as a vehicle control (EtOH), its effect was studied on glucose-stimulated insulin secretion (GSIS) and insulin secretion in response to direct depolarization using the secretagogue KCl in an immortalized murine beta cell line (MIN6), as well as primary isolated human and murine islets (FIG. 3A). […] Therefore, high physiologically relevant levels of CMPF impair GSIS.

Series [3] relates to mouse islets. In words: ROS accumulation in isolated islets (mitoSOX red, CM-H2-DCFDA). The class given is cell-based. The note with it: 200 μM, after 4 and 24 hrs of treatment. The procedure:
A) Proinsulin in the media of 24 hr treated islets (n=4/group). B) Mitochondrial membrane potential (MMP) following acute addition of vehicle control or 200 μM of CMPF (N=3/group). C) ROS levels in 4- and 24-hour treated mouse islets with representative images (N=10-15 islets/mouse from 4 mice/group). D) Expression of antioxidant genes Cat and (e) Ucp2 (n=4/group). F) ROS accumulation in 24 hr-treated islets treated with 500 μM NAC (n=10 islets/mouse from 4 mice/group). G) GSIS and (h) total insulin content from 24 hr-treated islets co-treated with 500 μM NAC (n=4/group). Western blots showing (i) Ser9 phosphorylation of GSK3β, (j) Ser473 phosphorylation of AKT (n=3/group). K) Immunofluorescent staining showing nuclear translocation of FOXO1 and (l) PDX1 with CMPF and NAC treatment (n=3-6). Quantification of nuclear percentage of (m) FOXO1 and (n) PDX1 based on immunofluorescent staining with CMPF and NAC treatment. O) Western blots showing protein abundance of PDX1 and FOXO1. Values are mean+/−SEM. Student's t-test (a, c-j, m-o), one-way ANOVA (b). *P<0.05, **P<0.01, ***P<0.001.
The level of superoxide and H2O2 were determined using mitoSOX red and 2′,7′-dichlorodihydro fluorescein diacetate (CM-H2-DCFDA) respectively (Molecular Probes, Invitrogen, Canada) in isolated islets treated with either vehicle control or 200 μM CMPF for 4 or 24 hours, as previously described (Lee et al. 2009). […]

For series [4], the system named is mouse islets. In words: Western blotting of treated mouse islets. The class given is cell-based. The procedure:
CMPF-treated and control mouse islets were lysed in RIPA buffer (Cell Signaling, Danvers, Mass., USA) containing protease inhibitor cocktail (Roche, Mississauga, ON, Canada). Lysates were spun at 12,000 rpm and supernatant was loaded onto a 4-15% SDS-PAGE gradient gel (BioRad, Mississauga, ON, Canada) and transferred onto PVDF membrane using a Turbo Blotter (BioRad). The membrane was probed with the corresponding antibodies, and imaged using Kodak Imager 4000pro (Carestream, Rochester, N.Y., USA).
(§1) To determine the mechanism through which CMPF decreases insulin biosynthesis we examined its effect on these key regulators. Under normal conditions, AKT and GSK3β have reciprocal activities. Active pAKT phosphorylates and inactivates GSK3β, preventing phosphorylation of downstream targets (Humphrey et al., 2010). […] FOXO1 is normally sequestered in the cytosol due to phosphorylation by AKT (Kitamura et al., 2005). […] Altered activity of these transcription factors is further confirmed by decreased mRNA levels of key target genes including Inst, transcription factors Pdx1 and Mafa, proinsulin processing enzymes CpE, Pc1 and Pc2, and the glucose transporter Glut2 (Boucher et al., 2006; Kaneto et al. 2008) (FIG. 18a).

Series [5] concerns murine islets. In words: Total insulin content in murine islets. The class given is cell-based. The note with it: 200 uM. The procedure:
Murine islets were treated for 24 hrs with vehicle control (0 CMPF), 20 uM (20 CMPF), or 200 uM (200 CMPF) CMPF, and assessed for total insulin content and mRNA expression. […] Decreased expression of insulin processing enzymes PCSK1, 2 and CpE (F), (G), (H) indicate that CMPF may also impair post-translational insulin processing. Finally, CMPF causes decreased expression of the beta cell glucose transporter GLUT2, and GCK, the rate-limiting enzyme critical for glucose metabolism (I) and (J), perhaps impairing glucose sensing and metabolism. In all cases n=4, *P<0.05.
(§2) In the absence of apoptosis and necrosis, CMPF must be impairing GSIS by causing beta cell dysfunction. First, the effect of CMPF treatment on insulin biosynthesis was investigated to determine if insulin is available to be released upon stimulation. MIN6, murine and human islets were treated with vehicle control, 20 uM and 200 uM CMPF for 4 hrs (MIN6) or 24 hrs (islets), and total insulin content measured. […] Lower total insulin content may be due to either defective insulin processing from proinsulin to mature insulin, or insufficient insulin transcription. To determine the mechanism through which CMPF is reducing total insulin content, quantitative PCR (qPCR) was performed on RNA that was isolated from murine islets treated with either vehicle control or 200 uM CMPF for 24 hrs.

The test system of series [6] is dispersed CD1 mouse islet cells. In words: Immunofluorescent staining of FOXO1 and PDX1 localization. The class given is cell-based. The note with it: CMPF-treated islets. The method, then: The cellular localization of FOXO1 and PDX1 were determined in dispersed CD1 mouse islet cells using immunofluorescence. The presence of the organic anion transporters (OATs) were determined in dispersed human islet cells also using immunofluorescence. Staining was performed as previously described (Diao et al., 2008). Images were acquired using a confocal microscope (Quorum Wave FX Spinning Disc; Perkin Elmer, Waltham M L, USA) and Volocity software (Perkin Elmer).
as §1

For series [7], the system named is MIN6. In words: Total insulin content in MIN6 cells. The class given is cell-based, murine. The note with it: 200 uM, 4 hrs, vs vehicle. The procedure: as §2

Consider `CCCc1oc(CCC(=O)O)c(C(=O)O)c1C` [CMPF, 3-carboxy-4-methyl-5-propyl-2-furanpropanoic acid], for which, in series [1], the “effect of conjugation to fatty acid-free BSA on CMPF-impaired GSIS” value is on record as “no effect”. The GSIS result in series [2] (24 hour pre-incubation, vs vehicle and 20 uM) is on record as “impairs GSIS”. Moreover, the “glucose- and KCl-stimulated insulin secretion” value in series [2] (CD1 mouse islets, 24 hours) is “significantly impaired”. Moreover, in series [3], the “increase in ROS over controls” value came out at 2 fold. In series [4] (24 hr treatment), the “AKT (Ser473) phosphorylation” value is “significantly impaired” and the “GSK3β (Ser9) phosphorylation” value is reported as “significantly impaired”. In series [4] (CMPF-treated islets), the “absolute protein levels of PDX1 and FOXO1” value is on record as “not significantly different”. The “total DNA” value in series [5] is “absence of changes”. In series [5] (24 hrs, vs vehicle), the total insulin content entry is recorded as “significantly reduced”. In series [6], the FOXO1 localization result is listed as “translocated to the nucleus” and the PDX1 localization entry is on record as “sequestered outside of the nucleus”. In addition, in series [7], the total insulin content entry is on record as “significantly reduced”.

For the origin of these results see patent publication US9726659B2, “CMPF as a biomarker for diabetes and associated methods” (The Governing Council of the University of Toronto, priority 2012, dated 2017).
